This passage reports inhibition and Activity results from ChEMBL document CHEMBL5257079, “Discovery of FXR/PPARγ dual partial agonist” (Bioorg Med Chem, 2023).

The source made the active and inactive calls. The rule behind the calls is not given here.

Assay [1] concerns the target T1, Peroxisome proliferator-activated receptor gamma (Mus musculus) (UniProt P37238).
T1 sequence (whole entry): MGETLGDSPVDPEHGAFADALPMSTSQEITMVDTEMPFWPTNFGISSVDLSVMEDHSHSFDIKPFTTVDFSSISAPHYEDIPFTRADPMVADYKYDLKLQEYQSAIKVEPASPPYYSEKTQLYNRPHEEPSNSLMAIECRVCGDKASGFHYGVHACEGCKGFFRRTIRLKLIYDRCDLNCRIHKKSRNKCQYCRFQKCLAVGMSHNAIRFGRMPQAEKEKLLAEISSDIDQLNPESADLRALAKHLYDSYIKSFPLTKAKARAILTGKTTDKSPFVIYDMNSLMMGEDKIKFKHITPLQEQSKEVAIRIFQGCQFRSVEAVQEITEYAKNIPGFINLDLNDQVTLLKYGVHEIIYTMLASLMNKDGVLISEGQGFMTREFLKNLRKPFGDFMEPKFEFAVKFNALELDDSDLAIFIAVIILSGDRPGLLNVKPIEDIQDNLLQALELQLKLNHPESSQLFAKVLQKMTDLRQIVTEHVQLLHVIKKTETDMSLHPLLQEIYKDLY
Kind of assay: Inhibition of TNFalpha stimulated PPARgamma phosphorylation at Ser273 residue in mouse 3T3-L1 cells preincubated for 60 mins followed by TNFalpha addition for 90 mins by Western blot analysis. In kind it is cell-based. Particulars: time 150.0 min. A general note: A western blot detects proteins with antibodies after separation by electrophoresis.

The target in assay [2] is T2, Retinoic acid receptor RXR-alpha (Homo sapiens) (UniProt P19793).
T2 sequence (whole entry): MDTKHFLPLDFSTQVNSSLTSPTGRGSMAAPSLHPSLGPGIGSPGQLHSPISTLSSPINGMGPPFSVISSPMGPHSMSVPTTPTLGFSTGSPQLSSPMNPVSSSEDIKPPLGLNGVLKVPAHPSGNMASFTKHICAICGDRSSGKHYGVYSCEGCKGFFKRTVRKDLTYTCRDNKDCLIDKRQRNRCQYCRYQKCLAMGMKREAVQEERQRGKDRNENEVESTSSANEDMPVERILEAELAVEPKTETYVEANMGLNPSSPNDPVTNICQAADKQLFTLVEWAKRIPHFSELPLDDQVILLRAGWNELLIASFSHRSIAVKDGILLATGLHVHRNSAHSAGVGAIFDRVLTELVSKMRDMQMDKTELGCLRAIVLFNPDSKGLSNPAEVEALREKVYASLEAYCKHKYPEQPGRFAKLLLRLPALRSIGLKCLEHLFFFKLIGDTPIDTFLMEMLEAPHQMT
Kind of assay: Activation of RXRalpha (unknown origin) at 10 uM.

The target of assay [3] is T3, Oxysterols receptor LXR-alpha (Homo sapiens) (UniProt Q13133).
T3 sequence (whole entry): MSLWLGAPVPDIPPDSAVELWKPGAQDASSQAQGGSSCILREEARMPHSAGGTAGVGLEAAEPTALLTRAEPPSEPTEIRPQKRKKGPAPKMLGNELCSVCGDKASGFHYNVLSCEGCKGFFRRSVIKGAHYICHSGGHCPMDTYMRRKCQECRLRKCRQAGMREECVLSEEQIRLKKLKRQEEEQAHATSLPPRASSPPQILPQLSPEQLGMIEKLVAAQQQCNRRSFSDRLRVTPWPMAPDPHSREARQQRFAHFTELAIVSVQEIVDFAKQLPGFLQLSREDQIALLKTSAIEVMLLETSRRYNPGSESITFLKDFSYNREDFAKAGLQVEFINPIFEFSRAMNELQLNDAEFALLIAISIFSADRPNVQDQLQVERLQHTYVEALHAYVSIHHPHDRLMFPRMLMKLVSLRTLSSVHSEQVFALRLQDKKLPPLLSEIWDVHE
Kind of assay: Activation of LXR alpha (unknown origin) at 10 uM.

Assay [4] has as its target T4, Bile acid receptor (Homo sapiens) (UniProt Q96RI1).
T4 sequence (whole entry): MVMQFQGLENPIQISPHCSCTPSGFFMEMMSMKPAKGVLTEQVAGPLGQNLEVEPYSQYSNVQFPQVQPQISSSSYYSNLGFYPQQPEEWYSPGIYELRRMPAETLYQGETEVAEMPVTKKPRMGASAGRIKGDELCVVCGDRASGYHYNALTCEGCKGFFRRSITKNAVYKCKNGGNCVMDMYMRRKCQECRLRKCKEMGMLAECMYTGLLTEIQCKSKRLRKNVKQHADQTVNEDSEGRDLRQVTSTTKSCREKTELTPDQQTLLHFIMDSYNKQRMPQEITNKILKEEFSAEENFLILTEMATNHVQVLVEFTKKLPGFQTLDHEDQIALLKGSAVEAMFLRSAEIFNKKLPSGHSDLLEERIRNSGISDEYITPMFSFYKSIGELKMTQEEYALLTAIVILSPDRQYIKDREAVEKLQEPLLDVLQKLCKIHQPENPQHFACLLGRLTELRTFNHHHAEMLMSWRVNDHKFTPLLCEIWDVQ
In words: Partial agonist activity at FXR in human Huh-7 cells assessed as reduction in CDCA-induced OSTalpha gene expression at 10 uM by RT-PCR analysis. In kind it is cell-based. Particulars: filed as partial agonist.

The target in assay [5] is T4, Bile acid receptor (Homo sapiens). Kind of assay: Partial agonist activity at human FXR expressed in Huh-7 cells in presence of CDCA by luciferase reporter gene assay relative to GW4064. In kind it is cell-based. In general terms: In a reporter assay the amount or activity of a reporter protein is the signal.
The target of assay [6] is T5, Vitamin D3 receptor (Homo sapiens) (UniProt P11473).
T5 sequence (whole entry): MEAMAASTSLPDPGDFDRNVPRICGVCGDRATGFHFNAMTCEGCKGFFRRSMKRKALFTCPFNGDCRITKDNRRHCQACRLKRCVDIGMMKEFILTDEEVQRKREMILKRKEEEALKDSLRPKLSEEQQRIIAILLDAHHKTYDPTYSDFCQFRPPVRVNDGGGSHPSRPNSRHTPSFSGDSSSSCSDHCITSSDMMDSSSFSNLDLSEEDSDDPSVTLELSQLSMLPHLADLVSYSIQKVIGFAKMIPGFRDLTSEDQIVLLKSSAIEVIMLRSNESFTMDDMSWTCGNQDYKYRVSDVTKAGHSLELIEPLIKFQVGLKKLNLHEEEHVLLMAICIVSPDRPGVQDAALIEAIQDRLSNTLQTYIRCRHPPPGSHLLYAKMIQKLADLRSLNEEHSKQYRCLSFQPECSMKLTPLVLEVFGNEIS
Kind of assay: Activation of VDR (unknown origin) at 10 uM.

For assay [7], the target named is T4, Bile acid receptor (Homo sapiens). In words: Activation of FXR (unknown origin) at 10 uM. The conditions noted are these: filed as activator.
Assay [8] has the same target. Kind of assay: Partial agonist activity at FXR in human Huh-7 cells assessed as reduction in CDCA-induced SHP gene expression at 10 uM by RT-PCR analysis. The class given is cell-based. The conditions noted are these: filed as partial agonist.

Take `CC(C)(C)c1ccc(-n2cnc3c(NC(=O)Cc4ccc(C(=O)O)cc4)cccc32)cc1`: the inhibition entry in assay [1] was “Dose-Dependent Effect”. Also, the result in assay [2], in assay [3] and in assay [6] was inactive. Also, the outcome in assay [4], in assay [7] and in assay [8] was Active. The Activity in assay [5] was determined as 35.6%.
